Laboratory results taken from publication PMC11882969 (Nature Communications, 2025).
Where “and” joins values, the source holds several entries; their conditions need not be identical. Identical values can stand only once.

Columns and labels:
CB1R = assay: Bimane fluorescence of labeled CB1R; type: biochemical, human; details: 10 μM ligand; apo 459 nm
Description: A minimal cysteine version of CB1R was generated[85] where all the cysteine residues (except C256 and C264) were mutated to alanine. […] Excess label was removed using size exclusion chromatography on a Superdex 200 10/300 Increase column in 20 mM HEPES pH 7.5, 100 mM NaCl and 0.01% MNG/0.001% CHS. Bimane-labeled CB1R at […] was incubated with ligands (10 μM) for one hour at room temperature. Fluorescence data was collected at room temperature in a 150 μL cuvette with a FluorEssence v3.8 software on a Fluorolog instrument (Horiba) in photon-counting mode. Bimane fluorescence was measured by excitation at 370 nm with excitation and emission bandwidth passes of 4 nm. The emission spectra were recorded from 410 to 510 nm with 1 nm increment and 0.1 s integration time.

[1] = target: panel of 320 non-olfactory GPCRs (Homo sapiens, UniProt P47901); type: cell-based
[2] = target: panel of 320 non-olfactory GPCRs (Homo sapiens, UniProt Q99677); type: cell-based
[3] = target: panel of 320 non-olfactory GPCRs (Homo sapiens, UniProt Q8NFJ6); type: cell-based
[4] = target: panel of 320 non-olfactory GPCRs (Homo sapiens, UniProt P0DMS8); type: cell-based
[5] = target: panel of 320 non-olfactory GPCRs (Homo sapiens, UniProt P35367); type: cell-based
[6] = target: panel of 320 non-olfactory GPCRs (Homo sapiens, UniProt P29275); type: cell-based
[7] = target: panel of 320 non-olfactory GPCRs (Homo sapiens, UniProt P32249); type: cell-based
[8] = target: panel of 320 non-olfactory GPCRs (Homo sapiens, UniProt P21918); type: cell-based
[9] = target: panel of 320 non-olfactory GPCRs (Homo sapiens, UniProt Q92847); type: cell-based
[10] = target: panel of 320 non-olfactory GPCRs (Homo sapiens, UniProt P21452); type: cell-based
[11] = target: panel of 320 non-olfactory GPCRs (Homo sapiens, UniProt Q96RI8); type: cell-based
[12] = target: panel of 320 non-olfactory GPCRs (Homo sapiens, UniProt Q9NZD1); type: cell-based
[13] = target: panel of 320 non-olfactory GPCRs (Homo sapiens, UniProt P13945); type: cell-based
[14] = target: panel of 320 non-olfactory GPCRs (Homo sapiens, UniProt P32245); type: cell-based
[15] = target: panel of 320 non-olfactory GPCRs (Homo sapiens, UniProt Q9Y2T6); type: cell-based
[16] = target: panel of 320 non-olfactory GPCRs (Homo sapiens, UniProt P08173); type: cell-based
[17] = target: panel of 320 non-olfactory GPCRs (Homo sapiens, UniProt Q9BZJ8); type: cell-based
[18] = target: panel of 320 non-olfactory GPCRs (Homo sapiens, UniProt P25103); type: cell-based
[19] = target: panel of 320 non-olfactory GPCRs (Homo sapiens, UniProt P47898); type: cell-based
[20] = target: panel of 320 non-olfactory GPCRs (Homo sapiens, UniProt Q15760); type: cell-based
[21] = target: panel of 320 non-olfactory GPCRs (Homo sapiens, UniProt P28223); type: cell-based
[22] = target: panel of 320 non-olfactory GPCRs (Homo sapiens, UniProt P21730); type: cell-based
[23] = target: panel of 320 non-olfactory GPCRs (Homo sapiens, UniProt Q9NYM4); type: cell-based
[24] = target: panel of 320 non-olfactory GPCRs (Homo sapiens, UniProt Q86Y34); type: cell-based
[25] = target: panel of 320 non-olfactory GPCRs (Homo sapiens, UniProt P31391); type: cell-based
[26] = target: panel of 320 non-olfactory GPCRs (Homo sapiens, UniProt Q7Z7M1); type: cell-based
[27] = target: panel of 320 non-olfactory GPCRs (Homo sapiens, UniProt P46093); type: cell-based
[28] = target: panel of 320 non-olfactory GPCRs (Homo sapiens, UniProt Q8N6U8); type: cell-based
[29] = target: panel of 320 non-olfactory GPCRs (Homo sapiens, UniProt P35414); type: cell-based
[30] = target: panel of 320 non-olfactory GPCRs (Homo sapiens, UniProt Q9BXC1); type: cell-based
[31] = target: panel of 320 non-olfactory GPCRs (Homo sapiens, UniProt P30550); type: cell-based
[32] = target: panel of 320 non-olfactory GPCRs (Homo sapiens, UniProt P23945); type: cell-based
[33] = target: panel of 320 non-olfactory GPCRs (Homo sapiens, UniProt Q13304); type: cell-based

Chain of panel of 320 non-olfactory GPCRs (Homo sapiens, UniProt P13945) (P13945 whole entry): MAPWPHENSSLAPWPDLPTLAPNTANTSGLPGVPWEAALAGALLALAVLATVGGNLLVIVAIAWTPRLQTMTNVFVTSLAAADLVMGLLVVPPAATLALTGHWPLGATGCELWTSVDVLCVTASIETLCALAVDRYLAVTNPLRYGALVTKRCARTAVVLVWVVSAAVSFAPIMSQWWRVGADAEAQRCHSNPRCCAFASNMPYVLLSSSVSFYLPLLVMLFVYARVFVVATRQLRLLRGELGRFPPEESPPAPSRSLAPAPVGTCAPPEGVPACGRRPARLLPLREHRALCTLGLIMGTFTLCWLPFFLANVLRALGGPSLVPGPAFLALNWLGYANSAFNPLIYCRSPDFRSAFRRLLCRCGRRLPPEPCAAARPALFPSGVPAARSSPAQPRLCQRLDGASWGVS
Chain of panel of 320 non-olfactory GPCRs (Homo sapiens, UniProt P35367) (P35367 whole entry): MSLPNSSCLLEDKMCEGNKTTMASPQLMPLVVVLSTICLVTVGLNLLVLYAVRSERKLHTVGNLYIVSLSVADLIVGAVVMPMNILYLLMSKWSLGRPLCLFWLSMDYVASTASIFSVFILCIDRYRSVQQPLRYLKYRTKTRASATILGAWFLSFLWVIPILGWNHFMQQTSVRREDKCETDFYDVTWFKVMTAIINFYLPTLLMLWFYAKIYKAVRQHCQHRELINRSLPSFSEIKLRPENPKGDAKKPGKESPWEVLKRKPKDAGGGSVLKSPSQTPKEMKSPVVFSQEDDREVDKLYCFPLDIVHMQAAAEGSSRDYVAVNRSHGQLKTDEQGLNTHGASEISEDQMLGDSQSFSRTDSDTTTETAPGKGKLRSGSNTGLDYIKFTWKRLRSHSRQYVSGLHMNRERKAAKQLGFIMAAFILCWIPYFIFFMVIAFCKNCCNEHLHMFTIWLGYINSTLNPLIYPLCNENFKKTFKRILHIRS
Chain of panel of 320 non-olfactory GPCRs (Homo sapiens, UniProt Q7Z7M1) (Q7Z7M1 whole entry): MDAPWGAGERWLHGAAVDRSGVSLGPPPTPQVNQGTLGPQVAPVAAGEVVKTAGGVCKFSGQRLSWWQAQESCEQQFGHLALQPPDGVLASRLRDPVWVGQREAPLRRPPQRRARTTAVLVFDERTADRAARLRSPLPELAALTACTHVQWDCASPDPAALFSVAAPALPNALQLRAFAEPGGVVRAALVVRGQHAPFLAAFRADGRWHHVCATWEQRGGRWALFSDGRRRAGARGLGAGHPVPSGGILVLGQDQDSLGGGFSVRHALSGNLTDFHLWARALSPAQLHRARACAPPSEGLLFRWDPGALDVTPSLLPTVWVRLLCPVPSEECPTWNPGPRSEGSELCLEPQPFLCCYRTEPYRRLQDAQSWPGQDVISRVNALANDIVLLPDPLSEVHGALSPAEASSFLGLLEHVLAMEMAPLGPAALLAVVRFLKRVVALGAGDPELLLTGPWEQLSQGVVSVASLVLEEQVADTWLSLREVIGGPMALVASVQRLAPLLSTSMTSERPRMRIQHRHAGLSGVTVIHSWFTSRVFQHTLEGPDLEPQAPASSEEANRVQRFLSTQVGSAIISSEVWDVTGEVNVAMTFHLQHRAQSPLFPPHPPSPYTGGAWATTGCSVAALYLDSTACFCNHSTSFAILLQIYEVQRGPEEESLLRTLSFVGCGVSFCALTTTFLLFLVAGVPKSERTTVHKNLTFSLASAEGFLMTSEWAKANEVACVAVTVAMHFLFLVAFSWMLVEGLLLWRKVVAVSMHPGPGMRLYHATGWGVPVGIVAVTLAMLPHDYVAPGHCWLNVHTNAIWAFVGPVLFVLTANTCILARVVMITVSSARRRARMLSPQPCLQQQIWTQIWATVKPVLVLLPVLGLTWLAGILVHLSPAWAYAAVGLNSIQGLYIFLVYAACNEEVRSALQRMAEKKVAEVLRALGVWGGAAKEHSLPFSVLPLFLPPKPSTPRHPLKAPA
Chain of panel of 320 non-olfactory GPCRs (Homo sapiens, UniProt P29275) (P29275 whole entry): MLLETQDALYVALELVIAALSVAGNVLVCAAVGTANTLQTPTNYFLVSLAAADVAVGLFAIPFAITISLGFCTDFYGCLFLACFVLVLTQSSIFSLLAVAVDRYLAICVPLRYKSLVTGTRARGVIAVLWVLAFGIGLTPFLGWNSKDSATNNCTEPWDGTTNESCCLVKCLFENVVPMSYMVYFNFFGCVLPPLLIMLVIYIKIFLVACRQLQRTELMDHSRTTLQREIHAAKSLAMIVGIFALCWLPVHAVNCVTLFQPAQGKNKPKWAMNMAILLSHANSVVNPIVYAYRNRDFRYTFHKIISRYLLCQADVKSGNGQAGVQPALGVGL
Chain of panel of 320 non-olfactory GPCRs (Homo sapiens, UniProt Q15760) (Q15760 whole entry): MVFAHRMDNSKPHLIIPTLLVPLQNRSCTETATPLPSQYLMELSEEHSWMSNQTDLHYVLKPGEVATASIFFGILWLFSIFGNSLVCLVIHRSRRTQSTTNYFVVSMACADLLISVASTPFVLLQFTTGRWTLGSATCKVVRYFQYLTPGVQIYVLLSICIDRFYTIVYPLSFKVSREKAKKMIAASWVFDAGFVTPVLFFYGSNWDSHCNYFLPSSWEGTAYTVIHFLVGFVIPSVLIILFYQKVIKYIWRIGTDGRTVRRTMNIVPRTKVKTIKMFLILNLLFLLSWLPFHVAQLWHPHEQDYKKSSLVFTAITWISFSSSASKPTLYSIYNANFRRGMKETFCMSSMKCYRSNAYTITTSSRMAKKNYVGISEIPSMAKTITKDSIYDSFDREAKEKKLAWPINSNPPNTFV
Chain of panel of 320 non-olfactory GPCRs (Homo sapiens, UniProt Q86Y34) (Q86Y34 21-549): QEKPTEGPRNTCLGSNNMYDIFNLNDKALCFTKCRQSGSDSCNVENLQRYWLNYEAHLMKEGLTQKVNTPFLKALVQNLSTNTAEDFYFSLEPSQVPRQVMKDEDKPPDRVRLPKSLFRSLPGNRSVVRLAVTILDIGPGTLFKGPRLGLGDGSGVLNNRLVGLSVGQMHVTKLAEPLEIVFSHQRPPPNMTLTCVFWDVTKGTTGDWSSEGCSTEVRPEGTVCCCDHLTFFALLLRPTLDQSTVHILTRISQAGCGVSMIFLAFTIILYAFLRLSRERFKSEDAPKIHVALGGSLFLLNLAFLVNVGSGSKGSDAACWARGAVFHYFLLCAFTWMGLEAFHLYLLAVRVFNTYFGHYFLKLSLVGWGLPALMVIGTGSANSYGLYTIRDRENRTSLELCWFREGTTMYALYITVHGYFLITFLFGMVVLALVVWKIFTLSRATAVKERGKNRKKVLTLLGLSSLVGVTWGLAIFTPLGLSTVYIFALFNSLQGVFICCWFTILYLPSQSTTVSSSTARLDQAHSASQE
Chain of panel of 320 non-olfactory GPCRs (Homo sapiens, UniProt P35414) (P35414 whole entry): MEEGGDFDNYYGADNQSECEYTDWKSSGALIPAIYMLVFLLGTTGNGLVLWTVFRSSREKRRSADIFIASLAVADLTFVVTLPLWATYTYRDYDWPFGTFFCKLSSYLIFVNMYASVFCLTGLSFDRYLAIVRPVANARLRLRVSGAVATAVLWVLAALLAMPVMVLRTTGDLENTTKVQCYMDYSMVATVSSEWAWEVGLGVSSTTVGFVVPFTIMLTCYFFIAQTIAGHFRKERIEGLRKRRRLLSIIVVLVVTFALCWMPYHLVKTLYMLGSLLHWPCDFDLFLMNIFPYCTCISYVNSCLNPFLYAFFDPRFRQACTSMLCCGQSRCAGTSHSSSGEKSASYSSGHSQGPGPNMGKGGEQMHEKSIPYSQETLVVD
Chain of panel of 320 non-olfactory GPCRs (Homo sapiens, UniProt P23945) (P23945 18-695): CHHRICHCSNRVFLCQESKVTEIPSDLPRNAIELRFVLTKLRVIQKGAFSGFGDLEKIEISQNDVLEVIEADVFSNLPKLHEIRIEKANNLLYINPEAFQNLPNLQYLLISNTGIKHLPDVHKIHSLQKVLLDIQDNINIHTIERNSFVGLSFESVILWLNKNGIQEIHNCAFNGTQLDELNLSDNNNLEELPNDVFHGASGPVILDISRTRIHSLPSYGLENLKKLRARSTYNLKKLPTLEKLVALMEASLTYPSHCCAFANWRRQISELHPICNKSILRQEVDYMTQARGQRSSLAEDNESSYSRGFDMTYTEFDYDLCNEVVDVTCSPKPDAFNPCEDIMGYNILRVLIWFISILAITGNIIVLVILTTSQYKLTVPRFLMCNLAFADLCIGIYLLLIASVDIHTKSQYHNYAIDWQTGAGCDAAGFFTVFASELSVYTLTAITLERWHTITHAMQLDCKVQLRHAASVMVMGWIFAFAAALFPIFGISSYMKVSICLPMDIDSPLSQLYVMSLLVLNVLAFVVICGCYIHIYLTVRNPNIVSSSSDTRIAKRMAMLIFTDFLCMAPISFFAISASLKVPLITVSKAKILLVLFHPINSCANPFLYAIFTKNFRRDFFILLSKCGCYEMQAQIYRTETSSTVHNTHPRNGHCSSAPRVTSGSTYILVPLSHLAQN
Chain of panel of 320 non-olfactory GPCRs (Homo sapiens, UniProt Q9BXC1) (Q9BXC1 whole entry): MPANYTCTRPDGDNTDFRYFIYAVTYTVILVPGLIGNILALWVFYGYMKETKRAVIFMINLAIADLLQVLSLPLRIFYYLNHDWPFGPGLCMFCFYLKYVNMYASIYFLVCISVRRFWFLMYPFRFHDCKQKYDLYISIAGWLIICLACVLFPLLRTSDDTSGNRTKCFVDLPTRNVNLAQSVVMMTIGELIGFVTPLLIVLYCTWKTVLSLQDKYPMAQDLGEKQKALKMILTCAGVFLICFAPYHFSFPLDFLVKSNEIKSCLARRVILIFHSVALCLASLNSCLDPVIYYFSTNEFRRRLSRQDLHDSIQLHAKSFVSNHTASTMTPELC
Chain of panel of 320 non-olfactory GPCRs (Homo sapiens, UniProt P0DMS8) (P0DMS8 whole entry): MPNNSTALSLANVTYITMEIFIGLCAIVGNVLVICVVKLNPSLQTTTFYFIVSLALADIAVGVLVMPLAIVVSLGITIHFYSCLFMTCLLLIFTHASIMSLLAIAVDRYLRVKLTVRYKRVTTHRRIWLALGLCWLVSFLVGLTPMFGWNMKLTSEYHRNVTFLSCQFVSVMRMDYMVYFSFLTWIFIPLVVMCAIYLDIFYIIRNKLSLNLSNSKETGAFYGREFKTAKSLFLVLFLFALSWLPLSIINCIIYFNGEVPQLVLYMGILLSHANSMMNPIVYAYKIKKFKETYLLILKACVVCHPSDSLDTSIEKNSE

COC(=O)[C@@](C)(NC(=O)c1cc(C)n(-c2cccc(C(F)(F)F)c2)n1)c1cccs1 [‘1350]
bimane spectrum λmax (CB1R): 463 nm
Fold of Basal RLU [1]: 1.5 and 0.8 and 0.9 and 1.1
Fold of Basal RLU [2]: 1.3 and 1.1 and 1 and 0.9
Fold of Basal RLU [3]: 0.9 and 0.7 and 0.8 and 1.1
Fold of Basal RLU [4]: 1 fold and 0.9 fold and 1.2 fold
Fold of Basal RLU [5]: 0.9 fold and 1 fold and 1.1 fold
Fold of Basal RLU [6]: 0.6 and 0.7 and 1.1
Fold of Basal RLU [7]: 0.8 and 0.9 and 1
Fold of Basal RLU [8]: 0.5 and 0.4 and 0.6
Fold of Basal RLU [9]: 1.4 fold and 1.8 fold and 1.6 fold
Fold of Basal RLU [10]: 1 fold and 1.1 fold and 0.9 fold
Fold of Basal RLU [11]: 0.9 fold and 1.2 fold and 1.1 fold and 0.8 fold
Fold of Basal RLU [12]: 1.1 and 1 and 0.6 and 0.8
Fold of Basal RLU [13]: 1 and 1.5 and 1.9 and 1.1
Fold of Basal RLU [14]: 1 fold and 1.4 fold and 0.8 fold
Fold of Basal RLU [15]: 1.4 fold and 1.3 fold and 1.5 fold
Fold of Basal RLU [16]: 1 and 1.1 and 0.6 and 0.8
Fold of Basal RLU [17]: 1 and 0.7 and 0.9 and 0.8
Fold of Basal RLU [18]: 1.1 and 1.2 and 1.7
Fold of Basal RLU [19]: 1.5 fold and 2.2 fold
Fold of Basal RLU [20]: 0.9 fold and 1.2 fold and 1 fold
Fold of Basal RLU [21]: 0.9 fold and 0.8 fold
Fold of Basal RLU [22]: 1.1 fold and 0.9 fold and 1.2 fold and 1 fold
Fold of Basal RLU [23]: 1.2 fold and 1 fold and 0.8 fold
Fold of Basal RLU [24]: 2.1 and 1.2 and 1.1
Fold of Basal RLU [25]: 2.3 and 2 and 1.6
Fold of Basal RLU [26]: 1.1 and 0.9 and 1.3 and 0.7
Fold of Basal RLU [27]: 1.1 fold and 0.9 fold and 1 fold
Fold of Basal RLU [28]: 1.2 fold and 1.1 fold and 1 fold
Fold of Basal RLU [29]: 0.9 fold and 1.1 fold and 1.2 fold and 1 fold
Fold of Basal RLU [30]: 0.9 and 1.3 and 1
Fold of Basal RLU [31]: 0.8 fold and 1.2 fold
Fold of Basal RLU [32]: 1 fold and 1.2 fold and 0.7 fold and 0.8 fold
Fold of Basal RLU [33]: 1 fold and 1.2 fold and 0.8 fold and 1.1 fold

Cc1cc(C(=O)NC(C)(c2ccco2)c2ccco2)nn1-c1cccc(C(F)(F)F)c1 [‘4936]
Fold of Basal RLU [1]: 0.6 and 0.4 and 0.5
Fold of Basal RLU [2]: 1.5 and 1.4 and 1.3 and 1
Fold of Basal RLU [3]: 0.9 and 1.3 and 0.8
Fold of Basal RLU [4]: 0.7 fold and 1.1 fold
Fold of Basal RLU [5]: 0.9 fold and 1.1 fold and 1.2 fold and 1.5 fold
Fold of Basal RLU [6]: 0.9 and 0.7 and 1 and 0.6
Fold of Basal RLU [7]: 0.9 and 1
Fold of Basal RLU [8]: 1.1 and 1.3 and 1.4
Fold of Basal RLU [9]: 1.3 fold and 2.2 fold and 1.6 fold
Fold of Basal RLU [10]: 1.3 fold and 1.1 fold and 1.5 fold
Fold of Basal RLU [11]: 0.8 fold and 1.3 fold and 0.7 fold
Fold of Basal RLU [12]: 0.8 and 0.6 and 0.9
Fold of Basal RLU [13]: 0.9 and 0.7 and 1
Fold of Basal RLU [14]: 1.9 fold and 1.8 fold and 1.7 fold and 1.6 fold
Fold of Basal RLU [15]: 1.1 fold and 1.7 fold and 1.4 fold
Fold of Basal RLU [16]: 0.7 and 1.1 and 1 and 0.6
Fold of Basal RLU [17]: 0.9 and 0.8 and 1 and 1.1
Fold of Basal RLU [18]: 1.3 and 1.8 and 1.7 and 2
Fold of Basal RLU [19]: 2.1 fold and 2.3 fold
Fold of Basal RLU [20]: 0.8 fold and 1 fold
Fold of Basal RLU [21]: 1.2 fold and 1 fold and 1.4 fold
Fold of Basal RLU [22]: 0.8 fold and 0.7 fold
Fold of Basal RLU [23]: 0.8 fold and 0.9 fold and 0.6 fold
Fold of Basal RLU [24]: 2.2 and 2.3 and 1.6 and 3.1
Fold of Basal RLU [25]: 1.9 and 1.7 and 2.4 and 1.5
Fold of Basal RLU [26]: 0.9 and 0.6 and 1.1
Fold of Basal RLU [27]: 0.9 fold and 1 fold and 0.8 fold
Fold of Basal RLU [28]: 1.1 fold and 1.2 fold
Fold of Basal RLU [29]: 1.1 fold and 1.4 fold and 1.2 fold
Fold of Basal RLU [30]: 1 and 1.1 and 1.3
Fold of Basal RLU [31]: 0.8 fold and 0.6 fold
Fold of Basal RLU [32]: 1 fold and 0.7 fold and 0.8 fold and 1.1 fold
Fold of Basal RLU [33]: 1.6 fold and 1.4 fold and 1.1 fold

COC(=O)[C@](C)(NC(=O)c1cc(C)n(-c2cccc(C(F)(F)F)c2)n1)c1cccs1 [‘8690]
bimane spectrum λmax (CB1R): 459 nm
